Legend:
[1] = tested on: alkaline phosphatase; assay: cells; details: read-out: EC50 (alkaline phosphatase data, printed in HPR CV-1 column)
[2] = tested on: ovulation; assay: Ovulation Inhibition; details: in vivo

Structure (SMILES): CC1(C)OC(=S)Nc2ccc(-c3cc(F)cc(C(F)(F)F)c3)cc21 [Example 43, 6-[3-Fluoro-5-(trifluoromethyl)phenyl]-4,4-dimethyl-1,4-dihydro-2H-3,1-benzoxazine-2-thione]
- melting point: 204 to 206 °C

Structure (SMILES): CC1(C)OC(=S)Nc2ccc(-c3cccc(C#N)c3)cc21 [Compound 4, 3-(4,4-Dimethyl-2-thioxo-1,4-dihydro-2H-benzo[d][1,3]oxazin-6-yl)-benzonitrile]
- EC50 [1]: 0.4 nM
- melting point: 236 to 237 °C

Structure (SMILES): CC1(C)OC(=S)Nc2ccc(-c3cc(C#N)ccc3F)cc21 [Example 47, 3-(4,4-Dimethyl-2-thioxo-1,4-dihydro-2H-3,1-benzoxazin-6-yl)-4-fluorobenzonitrile]
- melting point: 250 to 251 °C

Structure (SMILES): CC1(C)OC(=S)Nc2ccc(-c3csc(C#N)c3)cc21 [Compound 2, 4-(4,4-Dimethyl-2-thioxo-1,4-dihydro-2H1-benzo [d][1,3]oxazin-6-yl)-thiophene-2-carbonitrile]
- Ovulation Inhibition ED100 [2]: 1 mg/kg

Structure (SMILES): Cc1cc(C#N)sc1-c1ccc2c(c1)C(C)(C)OC(=S)N2 [Example 16, 5-(4,4-Dimethyl-2-thioxo-1,4-dihydro-2H-3,1-benzoxazin-6-yl)-4-methylthiophene-2-carbonitrile]
- melting point: 211 to 212 °C

Structure (SMILES): CC1(C)OC(=S)Nc2ccc(-c3cc(F)cc(Cl)c3)cc21 [Example 27, 6-(3-Chloro-5-fluorophenyl)-4,4-dimethyl-1,4-dihydro-2H-3,1-benzoxazine-2-thione]
- melting point: 204 to 205 °C
